Laboratory results: patent US7803407B2 (priority 1997, dated 2010)

Assays:
Assay in all cases: Laboratory disinfection efficacy test (suspension, pour plate count)
Format in all cases: cell-based
[1] = tested on: Staphylococcus aureus strain ATCC 6538; conditions: 15 seconds (ethanol trials) or 1 minute to 30 minutes
Experimental: (§1) The inoculum level for each of the test microorganisms were established in a similar manner. Test strains were grown individually at 35° C. for 24 hr. The cells were harvested by centrifugation at 10,000×g for 10 minutes and washed twice with Butterfield's Phosphate Buffer (BPB of pH 7.2). The cells were resuspended in the Butterfield's Phosphate Buffer to obtain a cell suspension of approximately 1.0×10^8 CFU/mL for each microorganism (target inoculum levels were approx. 10^6 in the final test solution).
(§2) The test microorganisms considered were tested at uniform sampling intervals, The sampling intervals selected were (a) 15 seconds (ethanol trials only), (b) 1 minute, (c) 5 minutes, (d) 10 minutes and (e) 30 minutes.
(§3) Five compounds were tested against the test microorganisms.
(§4) The test microorganisms were tested in accordance with the following test procedures. Duplicate trials were conducted for each test variable. Ninety nine volumes of the test solutions in 250 mL Erlenmeyer flasks were prepared from sterilized deionized water. The solutions were inoculated separately with one mL of 24 hour culture from each of the test strains to yield a flask inoculum level of approximately 1.0×10^6 CFU/mL.
(§5) Solutions were mixed well and kept under constant agitation. Samples of 1.0 mL were removed at the above specified time intervals and placed into 9.0 mL Neutralization Broth media (Difco) to yield an initial dilution of 1:10. All samples were serially diluted in the Butterfield's Phosphate Buffer solution (BPB) and plated onto Tryptic Soy Agar (TSA) in duplicate using the pour plate technique. Percent reductions were calculated for each test solution against each test strain.
(§6) For all tests which utilized either copper or silver ions, concentrated solutions were prepared 24 hours prior to the beginning of the study. Solutions were filtered and determinations for ion content were made. From these stock solutions (copper ion concentration as measured by ICAP and silver ion concentration as measured by Atomic Absorption analysis), final working solutions were made. The target ion concentration for both copper and silver was 5.0 mg/L.

[2] = tested on: Salmonella cholerasuis strain ATCC 10708
Experimental: as §1, §2, §3, §4, §5, §6

[3] = tested on: pseudomonas aeruginosa strain ATCC 15442; conditions: 15 seconds (ethanol trials) or 1 minute to 30 minutes
Experimental: as §1, §2, §3, §4, §5, §6

Compound | disinfection effectiveness [1] | log10 reduction ([2]; 1 minute contact) [log10] | disinfection ([2]; after 30 minutes of contact time) | disinfection effectiveness ([2]; all time periods up to 30 minutes) | disinfection effectiveness [3] | log10 reduction ([2]; 30 minute time period) [log10]
CCO [20% ethanol, ethanol] | No significant reduction | ~1.0 | Near complete disinfection | slow, but complete disinfection | no significant reduction | –
O=C(O)CC(O)(CC(=O)O)C(=O)O [citric acid] | Neither citric acid nor copper:citric acid was effective | – | – | – | no significant reduction | 1.0
